Laboratory results published in US20030157672A1, “Nitrilase from rhodococcus rhodochrous ncimb 11216” (priority 2000, published 2003).

Key:
[1] = tested on: nitrilase (nitA) from Rhodococcus rhodochrous NCIMB 11216 expressed in E. coli JM 109; assay: Conversion of nitriles by E. coli JM 109 (pDHE 17 and pDHE 18) cells; NH4 ions produced in supernatant, measured at 620 nm; assay type: biochemical; settings: 30° C., 1 h, measurement at 620 nm; for amount of NH4 ions produced in the supernatant (Table 1, Experiment 1): E. coli JM 109 (pDHE 17 and pDHE 18) cells, 2 g DBM/l, 200 rpm; for amount of NH4 ions produced in the supernatant (Table 2, Experiment 2): Experiment 2, in analogy to Experiment 1, E. coli JM 109 cells
Protocol: Various nitriles were converted using the E. coli strains JM 109 (pDHE 17 and pDHE 18). The cells were for this purpose cultured in 250 ml LB/Amp medium+2 g/l rhamnose at 30° C. and 200 rpm for 9 hours (=h). The cells were harvested by-centrifugation (20 min, 4° C., 5000 rpm). The cells were then resuspended in 10 mM phosphate buffer, pH 7.2, so that the concentration of dry biomass (DBM) was 2 g DBM/l. 150 μl portions of the cell suspension were pipetted into each well of a microtiter plate. The plate was then centrifuged. The supernatant was aspirated off and the cell pellets were washed twice with Na2HPO4 [sic] (1.42 g/lin Finnagua, pH 7.2). After another centrifugation step, the cell pellets are [sic] resuspended in the respective substrate solution (150 μl). One substrate was added to each row of 12 in the microtiter plate. A row with substrate solution but without cells was used as control (blank). The microtiter plates were incubated in a shaking incubator at 30° C. and 200 rpm for 1 h. The cells were then spun down and the amount of NH4 [sic] ions produced in the supernatant was determined using a Biomek instrument. Measurement took place at 620 nm, comparing with a calibration plot produced using various NH4OH solutions. The substrates employed in Experiment 1 (see FIG. 3, Table 1) were the following substrates: benzonitrile (=1), 3-hydroxypropionitrile (=2), 2-methylglutaronitrile (=3), 4-chloro-3-hydroxybutyronitrile (=4), malononitrile (=5), crotononitrile (=6), geranonitrile (=7), octanedinitrile (=8), pivalonitrile (=9), aminocapronitrile (=10), 3,4-dihydroxybenzonitrile (=11), 3,5-dibromo-4-hydroxybenzonitrile (=12), 3-cyanopyridine (=13), 4-bromobenzyl cyanide (=14), 4-chlorobenzyl cyanide (=15), 2-phenylbutyronitrile (=16), 2-chlorobenzyl cyanide (=17), 2-pyridylacetonitrile (=18), 4-fluorobenzyl cyanide (=19), 4-methylbenzonitrile (=20), benzyl cyanide (=21). The substrates used in Experiment 2 (see FIG. 4, Table 2), which was carried out in analogy to Experiment 1, were as follows: […]

[2] = Conversion of benzonitrile into benzoic acid by nitrilase crude extract or purified nitrilase (HPLC); assay type: biochemical; settings: purified using QIAexpress-Ni2+-NTA; enzyme concentration 50 μg/ml; initial benzonitrile 10 mM, 30° C., pH 7.5, 50 mM Tris/HCl, 0.1 mM DTT
Protocol: For heterologous expression on the laboratory scale, JM 109 (pDHE 17) from a 37° C. overnight culture was inoculated 1:200 in 50 ml dYT complete mediumn (Sambrook et al., 1989) with 0.2% L-rhamnose, and the culture was cultivated with induction in the shaking water bath at 30° C. for 8 h. The cells were then washed once in 50 mM Tris/HCl, pH 7.5, resuspended in the same buffer equivalent to an OD600 of 10, and disrupted by ultrasound treatment. The procedure with JM 109 (pDHE 18) was analogous. The protein pattern of the crude extracts obtained by ultrasound treatment and clarified by centrifugation was determined by SDS polyacrylamide gel electrophoresis, comparing with the noninduced control; with the induction conditions mentioned, the proportion of nitrilase in the protein was about 30% for each of JM 109 (pDHE 17) and JM 109 (pDHE 18).
The nitrilase with His6 motif from JM 109 (pDHE 18) was purified by washing the cells in 50 mM Tris/HCl, pH 7.5, resuspending equivalent to about 50 OD600/ml and preparing extracts with a French press (2×at 20000 psi). […]
In this case, one unit is equivalent to the production of 1 μmol of benzoic acid at an initial benzonitrile concentration of 10 mM, 30° C. and pH 7.5. […] The formation of benzoic acid was determined by HPLC (RP18 column, 250×4 [lacuna], mobile phase 47% methanol, 0.3% H3PO4).

Molecule | amount of NH4 ions produced in the supernatant (Table 1, Experiment 1) [1] | amount of NH4 ions produced in the supernatant (Table 2, Experiment 2) [1] | also measured
N#CCC(O)CCl (stereo not shown) [4-Chloro-3-hydroxybutyronitrile] | 0.1208 | – | –
CCC(C#N)c1ccccc1 (stereo not shown) [2-Phenylbutyronitrile] | 0.1376 | – | –
N#CC(O)c1ccccc1 (stereo not shown) [Mandelonitrile] | – | 0.0000 | –
N#CCc1ccc(Cl)cc1 [4-Chlorobenzyl cyanide] | 0.4830 | – | –
N#C/C=C/C#N [Fumaronitrile] | – | 2.2510 | –
CC(C#N)CCC#N (stereo not shown) [2-Methylglutaronitrile] | 0.4758 | – | –
N#CCc1ccccc1Cl [2-Chlorobenzyl cyanide] | 0.4530 | – | –
N#CCC(CC#N)c1ccccc1 [3-Phenylglutaronitrile] | – | 0.0000 | –
COC(CC#N)OC [3,3-Dimethoxypropionitrile] | – | 0.1466 | –
N#CCc1ccccn1 [2-Pyridylacetonitrile] | 0.1222 | – | –
N#CCCO [3-Hydroxypropionitrile] | 0.1785 | – | –
N#CCc1ccsc1 [3-Cyanomethylthiophene] | – | 0.9949 | –
CCC#N [Propionitrile] | – | 0.4135 | –
N#Cc1ccccc1 [Benzonitrile] | 0.4051 | 1.9518 | –
N#CCCCCCCC#N [Octanedinitrile] | 0.4548 | – | –
CC=CC#N [Crotononitrile] | 0.4946 | – | –
Cc1ccc(C#N)cc1 [4-Methylbenzonitrile] | 0.4326 | – | –
N#CCc1ccccc1 [Benzyl cyanide] | 0.2755 | – | –

Molecule | amount of NH4 ions produced in the supernatant (Table 1, Experiment 1) [1] | amount of NH4 ions produced in the supernatant (Table 2, Experiment 2) [1] | also measured
N#CC(O)CCc1ccccc1 (stereo not shown) [2-Hydroxy-4-phenylbutyronitrile] | – | 0.0000 | –
N#Cc1ccsc1 [3-Cyanothiophene] | – | 1.9038 | –
N#CCc1ccc(Br)cc1 [4-Bromobenzyl cyanide] | 0.5213 | – | –
N#CCc1ccc(F)cc1 [4-Fluorobenzyl cyanide] | 0.2361 | – | –
N#Cc1ccc(O)c(O)c1 [3,4-Dihydroxybenzonitrile] | 0.1569 | – | –
CC(C)(C)C#N [Pivalonitrile] | 0.1569 | – | –
N#CCCCC#N [Glutaronitrile] | – | 2.0809 | –
N#CCC#N [Malononitrile] | 0.1208 | – | –
N#CCCCCCN [Aminocapronitrile] | 0.1236 | – | –
CCCCC#N [Valeronitrile] | – | 1.9218 | –
N#CC(N)c1ccccc1 (stereo not shown) [2-Amino-2-phenylacetonitrile] | – | 0.0000 | –
CC(C)=CCC/C(C)=C/C#N [Geranonitrile] | 0.1517 | – | –
CC(O)C#N (stereo not shown) [2-Hydroxypropionitrile] | – | 0.0000 | –
N#C/C=C/c1ccccc1 [trans-cinnamonitrile] | – | 2.2509 | –
CC(C#N)c1ccccc1 (stereo not shown) [2-Phenylpropionitrile] | – | 0.0000 | –
N#Cc1cc(Br)c(O)c(Br)c1 [3,5-Dibromo-4-hydroxybenzonitrile] | 0.1624 | – | –
N#Cc1cccnc1 [3-Cyanopyridine] | 0.2393 | – | –
nitrilase with His6 motif: Recombinant nitA nitrilase of R. rhodochrous NCIMB 11216 with C-terminal His6 motif from E. coli JM 109 (pDHE 18), purified on Ni2+-NTA (protein, UniProt Q03217 2-366, looked up, C-terminal His6 tag, Recombinant nitA nitrilase of R. rhodochrous NCIMB 11216 with C-terminal His6 motif from E. coli JM 109 (pDHE 18), purified on Ni2+-NTA) Aliphatic nitrilase: VEYTNTFKVAAVQAQPVWFDAAKTVDKTVSIIAEAARNGCELVAFPEVFIPGYPYHIWVDSPLAGMAKFAVRYHENSLTMDSPHVQRLLDAARDHNIAVVVGISERDGGSLYMTQLVIDADGQLVARRRKLKPTHVERSVYGEGNGSDISVYDMPFARLGALNCWEHFQTLTKYAMYSMHEQVHVASWPGMSLYQPEVPAFGVDAQLTATRMYALEGQTFVVCTTQVVTPEAHEFFCDNDEQRKLIGRGGGFARIIGPDGRDLATPLAEDEEGILYADIDLSAITLAKQAADPVGHYSRPDVLSLNFNQRHTTPVNTAISTIHATHTLVPQSGALDGVRELNGADEQRALPSTHSDETDRATASI | – | – | conversion of 2-benzonitrile [sic] into benzoic acid (specific activity), purified nitrilase [2]: around 11 U/mg
